The record followed here is patent publication US20230391868A1, “COMPOSITIONS FOR AND METHODS OF TREATING CANCER” (The George Washington University, priority 2022, published 2023).

The structures appear in SMILES notation.

One assay concerns THP1-derived macrophages. Put plainly: M1/M2 marker gene expression in THP1-derived macrophages by qRT-PCR. The class given is cell-based, human. The method, then:
Macrophages were polarized to M1-like phenotype using 50 ng/mL of interferon gamma (IFNγ, 575306, Biolegend) and 100 ng/mL of bacterial lipopolysaccharide (LPS, L2880, Sigma Aldrich, St. Louis, MO) for 24 hours. To polarize macrophages towards the M2-like phenotype, macrophages were stimulated with 20 ng/mL of IL-4 (214-14, PeproTech) and 20 ng/mL of IL-13 (575904, Biolegend). THP1 monocytes were treated with 5 ng/mL of phorbol 12-myristate 13-acetate (PMA) to induce differentiation into macrophages. Once converted to macrophages, media was replaced to remove PMA prior to treatment and/or polarization. Polarization towards M1 and M2 phenotypes was performed with respective recombinant human cytokines from PeproTech: 50 ng/mL of IFNγ (300-02), 20 ng/mL IL-4 (200-04), and 20 ng/mL IL-13 (200-13). 100 ng/mL LPS was also used to polarize toward the M1 phenotype. 3. In vivo Studies.
qRT-PCR: Total RNA was extracted from cells using the Trizol reagent according to manufacturer's instructions (ThermoFisher Scientific, 15596018). Samples were then processed immediately or stored at −80° C. RNA was quantified using a NanoDrop One Spectrophotometer (ThermoFisher Scientific). The 260/280 ratios were routinely over 1.8. Sample cDNA was produced using the iScript cDNA synthesis kit (Bio-Rad, 1708891). Target mRNA was quantified using MyIQ single-color real-time PCR detection system from Bio-Rad (Bio-Rad, Hercules, CA) and iQ SYBR green Supermix (Bio-Rad, 1708882). The following primers were synthesized by Invitrogen (Waltham, MA) with sequences designed by Origene (Rockville, MD): mouse R-actin (MP200232), mouse Nos2 (MP208933), mouse MRC1 (MP207800), human R-actin (HP204660), human IL-1β (HP200544), human MRC1 (HP206121), human NOS2 (HP200591), human CD209 (HP214086), mouse SIRPα (MP215450), mouse LRP1 (MP207604), human LRP1 (HP206040), mouse MFGE8 (MP208190), human MFGE8 (HP225757), mouse CD36 (MP201923), human CD36 (HP200058), and mouse CD47 (MP201932). Primers for mouse ARG-1 (PPM31770C) and human SIRPα (QT01031051) were purchased from Qiagen (Hilden, Germany). Human CD47 primer sequences were obtained from Sudo T, et al and are 5′-[…]-3′ (sense) (SEQ ID NO:01) and 5′-[…]-3′ (antisense) (SEQ ID NO:02) (Sudo T, et al. (2017) Oncol. Lett. 14:801-809). Human CD86 primer sequences are 5′-[…]-3′ (sense) (SEQ ID NO:03) and 5′-[…]-3′ (antisense) (SEQ ID NO:04). Mouse CD80 sequences are 5′-[…]-3′ (sense) (SEQ ID NO:05) and 5′-[…]-3′ (antisense) (SEQ ID NO:06). Cycling conditions were set as per manufacturer's instructions. Single product amplification was confirmed by melting curve analysis. Quantification is expressed in arbitrary units and target mRNA levels were normalized to R-actin expression. […]
(In general: In qPCR the cycle at which signal appears reflects the starting amount.)

A further assay relates to SIRPα. The assay can be described thus: SIRPα gene expression in mouse macrophages by qRT-PCR. The assay is classed as cell-based. The note with it: A31A7 macrophages and BMDMs, unpolarized and polarized, qRT-PCR (FIG. 2A). On the procedure: Bone marrow-derived macrophages were isolated from the femurs and tibias of wild-type C57/Bl6, HDAC6 knockout (C57BL/6J-Hdac6em2Lutzy/J, 029318, Jackson Laboratory), or UBC-GFP (C57BL/6-Tg(UBC-GFP)30Scha/J, 004353, Jackson Laboratory). Isolated bone marrow cells were cultured in RPMI 1640 complete medium with 10% FBS, 1% NEAA, and 1% penicillin-streptomycin in 5% CO2 at 37° C. Medium was supplemented with murine recombinant M-CSF (20 ng/mL, 576404, Biolegend) to differentiate monocytes into macrophages. Three days after bone marrow isolation, undifferentiated and floating cells were washed with PBS and replaced with fresh RPMI media. A3.1A7 cells and BMDMs were pretreated with 5 μM of HDAC6 inhibitor NextA or vehicle prior to adding polarizing cytokines. […]
qRT-PCR: Total RNA was extracted from cells using the Trizol reagent according to manufacturer's instructions (ThermoFisher Scientific, 15596018). […] RNA was quantified using a NanoDrop One Spectrophotometer (ThermoFisher Scientific). […] Target mRNA was quantified using MyIQ single-color real-time PCR detection system from Bio-Rad (Bio-Rad, Hercules, CA) and iQ SYBR green Supermix (Bio-Rad, 1708882). […] Quantification is expressed in arbitrary units and target mRNA levels were normalized to R-actin expression.

With `CCCCN(Cc1ccc(C(=O)NO)cc1)C(=O)Nc1ccccc1` [NextA, Nexturastat A], the “M1-associated markers NOS2, CD86, and IL1B” value in the assay with THP1-derived macrophages (THP1-derived M1 macrophages, 5 μM NextA (FIG. 1H)) is “either unaffected or significantly upregulated”. In the assay on THP1-derived macrophages (THP1-derived M2 macrophages, 5 μM NextA (FIG. 1I)), the “expression of M2-associated markers CD206 and CD209 at the transcriptional level” value was “significantly downregulated”. The figures for the “Sirpa expression at the transcriptional level” value in the assay with SIRPα and in the assay on SIRPα (listed as Nexturastat A) were “significantly downregulated” and “downregulated”, respectively.
